Among the data in patent publication US8426415B2, “Human ADAM-10 inhibitors” (Symphony Evolution, Inc., priority 2007, dated 2013) are stability in solution values, retold here.

The nature of this data set: stability in solution of the free hydroxamic acid (observed during purification). Type of data set: physicochemical. The conditions noted are these: degradation during lengthy column elution and solvent evaporation on pilot scale. The text has this: The purity of hydroxycarbamoylpiperazine of formula VIII obtained after part (i) ranged from 84% to 92%. The observed yields were between 63% and 78%. This hydroxycarbamoylpiperazine was of insufficient purity to produce pure magnesium salt/complex of formula VI suitable for pharmaceutical use. The direct conversion of hydroxycarbamoylpiperazine of formula VIII to the magnesium salt/complex of formula VI by omitting parts (ii) and (iii) yielded the magnesium salt/complex with the purity ranging from 96% to 97%. We discovered that this problem could be solved by first obtaining and separating a benzhydrylpiperazine complex of formula IX prior to the conversion to the magnesium salt/complex of […]. Yields for the process that included parts (i)-(iv) ranged from 81% to 86%. The purity of the magnesium salt/complex of […] was at least 99%; specifically, between 99.4% and 99.7%.

Consider `COCCOC(=O)N1CCN(S(=O)(=O)c2cc(F)c(Oc3ccc(Cl)cc3)c(F)c2)[C@@H](C(=O)NO)C1` [formula VIII, 4-(4-(4-chlorophenoxy)-3,5-difluorophenylsulfonyl)-3-(hydroxycarbamoyl)piperazine-1-carboxylic acid, (R)-2-methoxyethyl ester], for which the stability in solution entry was “poor stability in solution”.
